Measured values: patent EP1154766B1, “USE OF R-ARYL PROPIONIC ACIDS FOR PRODUCING MEDICAMENTS TO TREAT DISEASES IN HUMANS AND ANIMALS, WHEREBY SAID DISEASES CAN BE […] INFLUENCED BY INHIBITING THE ACTIVATION OF NF-KAPPA B” (PAZ Arzneimittel- Entwicklungsgesellschaft mbH, priority 1999, dated 2000)

Assays:
[1] = system: NF-κB; experiment: Inhibition of NF-κB activation, method not stated; conditions: arylpropionic acid derivatives without notable CoA thioester formation in humans
[2] = system: postoperative dental pain; conditions: clinical study in patients, literature; cited from earlier work
[3] = system: akutem Postepisiotomie-Schmerz; experiment: Placebo-controlled double-blind study in acute post-episiotomy pain; format: in vivo, Frauen; conditions: single oral dose 25 mg or 100 mg, pain scale 0-3 over 360 min, Abb. 1
Description: Abb. 1: Placebo-kontrollierte Doppelblind-Studie an 180 Frauen mit akutem Postepisiotomie-Schmerz (Mittelwertkurven)
Die hospitalisierten Patienten wurden in drei Medikationsgruppen mit je 50 Patienten und einer Placebogruppe (30 Patienten) randomisiert. Jede Patientin erhielt innerhalb 48 Stunden nach der ansonsten normal verlaufenden Entbindung eine Einzeldosis der zu untersuchenden Studienmedikation (25 mg R(-)Flurbiprofen oder 100 mg R(-)Flurbiprofen oder 1000 mg Paracetamol) oder ein Placebo oral verabreicht. Kurz vor der oralen Gabe der Testpräparate bzw. des Placebos und zu genau festgelegten Untersuchungszeitpunkten (15, 30, 45, 60, 120, 180, 240, 300 und 360 Minuten) wurden die Patienten bezüglich ihres Schmerzempfindens befragt. Die Wirksamkeit der einzelnen Präparate wurde anhand einer Schmerzempfindungs-Skala (0 = keine, 1 = mild, 2 = moderat, 3 = stark) beurteilt. Die zeitlichen Verläufe sind in den in Abbildung 1 wiedergegebenen Mittelwertkurven der einzelnen Patientengruppen zusammengefaßt.

[4] = system: gastrointestinale Verträglichkeit; conditions: studies in humans, literature; cited from earlier work
[5] = system: Zymosan-induzierte Rattenpfotenödem; experiment: Zymosan-induced rat paw oedema (plethysmograph); format: in vivo, Ratte; conditions: for Pfotenvolumen: rat, intraplantar zymosan, R-Flurbiprofen 1 to 27 mg/kg intraperitoneal, Abb. 3a-c
Source text: Da der nukleäre Transkriptionsfaktor NF-κB u.a. für die Bildung, einer Reihe von Enzymen mit proinflammatorischer und ödembildender Eigenschaften verantwortlich ist, wurde der Einfluß von R-Flurbiprofen auf das Zymosan-induzierte Rattenpfotenödem bestimmt (Methode beschrieben bei: Meller ST und Gebhart GF: Intraplantar zymosan as a reliable, quantifiable model of thermal and mechanical hyperalgesia in the rat; European Journal of Pain, 1, 43-52 (1997). Abbildung 3 a - c faßt die Ergebnisse zusammen. Abb. 3a - c: Zeitabhängige Zunahme des Rattenpfotenvolumens (gemessen mit einem Plethysmographen) nach intraplantarer Applikation von Zymosan. Nach Applikation von Zymosan [Meller and Gebhart (s.o.)] in eine Hinterpfote der Ratte kommt es als Zeichen einer Entzündung zur Zunahme des Pfotenvolumens (Placebo-Gruppe, Applikation von Vehicle = Phosphatpuffer (PP)). […] Dieser Effekt war besonders ausgeprägt zwischen der 2. und 6. Stunde nach Zymosan-Applikation. Dexamethason (0,5 mg/kg Körpergewicht), ein bekannter Hemmer der NF-κB Aktivierung, wurde als Positivkontrolle eingesetzt. […] S-Flurbiprofen ist ein bekannter Hemmer der Cyclooxygenasen. Abb. 4: Zusammenfassung der Effekte von 9 mg/kg R-Flurbiprofen, 9 mg/kg S-Flurbiprofen und 0,5 mg/kg Dexamethason gegen Placebo (V) über 24 Stunden.

[6] = system: NF-κB (p50/p65 Komplex von NF-κB); experiment: Electro mobility-shift assay (gel retention analysis) of LPS-induced NF-κB activation in RAW cells; format: cell-based
Source text: Die erfindungsgemäßen Arzneimittel auf der Basis von R-Arylpropionsäuren und deren Derivaten gemäß Anspruch 1 als Hemmer der NF-κB-Aktivierung zur Therapie von Erkrankungen, welche durch die Modifizierung der NF-κB-Aktiierung beeinflußt werden, beruht auf folgenden experimentellen Untersuchungen: Abb. 2: Konzentrationsabhängiger Einfluß von R- und S-Flurbiprofen auf die Aktivierung des Transkriptionsfaktors NF-κB in RAW-Zellen. Die Gelretentionsanalyse (Electro Mobility-Shift Assay; DIG Gel Shift Kit, Boehringer Mannheim) zeigt, daß LPS (1 µg/ml) zu einer Aktivierung von NF-κB (p50/p65 Komplex von NF-κB) führt (Spur Nr. 2 und 10). […] Eine densitometrische Auswertung ergab, daß S-Flurbiprofen hinsichtlich dieser Eigenschaften ca. 100 mal weniger potent war (Spur Nr. 11, 12, 13,14, gegen Spur Nr. 10 als Kontrolle). Spur Nr. 1 und 8 zeigen jeweils unstimulierte Kontrollzellen.

## CC(C(=O)O)c1ccc(-c2ccccc2)c(F)c1 (stereo not shown) [Flurbiprofen]
[1]
  Hemmung der Aktivierung von NF-κB: ausgeprägte Hemmung der Aktivierung von NF-κB

## C[C@@H](C(=O)O)c1cccc(C(=O)c2ccccc2)c1 [R-Ketoprofen]
[2]
  schmerzlindernde Wirkung: nachgewiesen

## C[C@@H](C(=O)O)c1ccc(-c2ccccc2)c(F)c1 [R-Flurbiprofen]
[3]
  schmerzlindernde Wirkung: nachgewiesen
[4]
  gastrointestinale Verträglichkeit: gute gastrointestinale Verträglichkeit
[5]; 9 mg/kg, compared with 0,5 mg/kg Dexamethason, Abb. 4
  Effekte auf das Pfotenvolumen über 24 Stunden gegen Placebo: vergleichbar mit denen nach 0,5 mg/kg Dexamethason
[5]; hours after zymosan application
  Zeitraum, in dem der Effekt auf das Pfotenvolumen besonders ausgeprägt war: zwischen der 2. und 6. Stunde
[5]
  Pfotenvolumen: überraschende Abnahme des Pfotenvolumens
[6]; RAW-Zellen, LPS 1 µg/ml, micromolar concentrations, Abb. 2
  Hemmung der LPS induzierten Aktivierung von NF-κB: waren in der Lage diese LPS induzierte Aktivierung von NF-κB zu hemmen
[6]; relative to the corresponding S-enantiomer
  Hemmung der NF-κB Aktivierung, mal potenter als die entsprechenden S-Enantiomere: ca. 100 mal

## C[C@H](C(=O)O)c1ccc(-c2ccccc2)c(F)c1 [S-Flurbiprofen, reference compound]
[5]
  Pfotenvolumen: Reduktion des Pfotenvolumens
[6]; densitometric evaluation of the gel shift, RAW-Zellen, LPS 1 µg/ml
  Potenz der Hemmung der NF-κB Aktivierung, mal weniger potent than R-Flurbiprofen: ca. 100 mal

## CC(C(=O)O)c1cccc(C(=O)c2ccccc2)c1 (stereo not shown) [Ketoprofen]
[1]
  Hemmung der Aktivierung von NF-κB: ausgeprägte Hemmung der Aktivierung von NF-κB

## COc1ccc2cc([C@H](C)C(=O)O)ccc2c1 [Naproxen]
[1]
  Hemmung der Aktivierung von NF-κB: ausgeprägte Hemmung der Aktivierung von NF-κB
